Reference: PubChem BioAssay AID248 (DTP/NCI, 2004)
Several values for one entry are separate records, joined by “and”; a condition that tells them apart may be missing. Equal entries are not always repeated. Inconclusive results and toxic doses are left out. Cut-off read from the data, not from the text of the source: active = T/C of 150% or more; inactive = T/C below 125%.

Test system: L1210 leukemia ip in BDF1 mice, survival T/C
Assay: NCI In Vivo Anticancer Drug Screen. Data for tumor model L1210 Leukemia (intraperitoneal) in B6D2F1 (BDF1) mice
Conditions: higher = longer survival
How it was run: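 Value reflects the ratio of survival in compound-treated mice to survival in vehicle-treated controls, with both groups carrying the same transplanted tumor.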

[1] = endpoint: mean survival time, dose: 100.0 mg/kg/injection, schedule: Q01DX009 (ip), vehicle: Klucel (hydroxypropylcellulose) (HPC)
[2] = endpoint: mean survival time, dose: 200.0 mg/kg/injection, schedule: Q01DX009 (ip), vehicle: Klucel (hydroxypropylcellulose) (HPC)
[3] = endpoint: mean survival time, dose: 400.0 mg/kg/injection, schedule: Q01DX009 (ip), vehicle: Klucel (hydroxypropylcellulose) (HPC)
[4] = endpoint: mean survival time, dose: 100.0 mg/kg/injection, schedule: Q01DX009 (ip), vehicle: saline
[5] = endpoint: mean survival time, dose: 200.0 mg/kg/injection, schedule: Q01DX009 (ip), vehicle: saline
[6] = endpoint: mean survival time, dose: 100.0 mg/kg/injection, schedule: Q01DX009 (ip), vehicle: other
[7] = endpoint: mean survival time, dose: 100.0 mg/kg/injection, schedule: Q04DX003 (ip), vehicle: other
[8] = endpoint: mean survival time, dose: 200.0 mg/kg/injection, schedule: Q01DX009 (ip), vehicle: other
[9] = endpoint: mean survival time, dose: 200.0 mg/kg/injection, schedule: Q04DX003 (ip), vehicle: other
[10] = endpoint: mean survival time, dose: 400.0 mg/kg/injection, schedule: Q04DX003 (ip), vehicle: other

Measured: T/C

CC(=O)O[C@]1(C(C)=O)CC[C@H]2[C@@H]3C[C@H](C)C4=CC(=O)C=C[C@]4(C)[C@@]3(F)[C@@H](O)C[C@@]21C
inactive: endpoint: mean survival time, dose: 12.5 mg/kg/injection, schedule: Q01DX010 (sc), vehicle: steriod suspending solution 96 % of control and 98 % of control | endpoint: mean survival time, dose: 25.0 mg/kg/injection, schedule: Q01DX009 (sc), vehicle: steriod suspending solution 103 % of control and 104 % of control and 111 % of control | endpoint: mean survival time, dose: 25.0 mg/kg/injection, schedule: Q01DX010 (sc), vehicle: steriod suspending solution 98 % of control and 101 % of control | endpoint: mean survival time, dose: 50.0 mg/kg/injection, schedule: Q01DX009 (sc), vehicle: steriod suspending solution 93 % of control and 95 % of control and 111 % of control | endpoint: mean survival time, dose: 50.0 mg/kg/injection, schedule: Q01DX010 (sc), vehicle: steriod suspending solution 95 % of control and 107 % of control | endpoint: mean survival time, dose: 100.0 mg/kg/injection, schedule: Q01DX009 (sc), vehicle: steriod suspending solution 98 % of control (2×) and 111 % of control | endpoint: mean survival time, dose: 100.0 mg/kg/injection, schedule: Q01DX010 (sc), vehicle: steriod suspending solution 98 % of control and 107 % of control | endpoint: mean survival time, dose: 200.0 mg/kg/injection, schedule: Q01DX009 (sc), vehicle: steriod suspending solution 95 % of control (2×) and 111 % of control | endpoint: median survival time, dose: 25.0 mg/kg/injection, schedule: Q01DX009 (sc), vehicle: steriod suspending solution 106 % of control | endpoint: median survival time, dose: 50.0 mg/kg/injection, schedule: Q01DX009 (sc), vehicle: steriod suspending solution 100 % of control | endpoint: median survival time, dose: 100.0 mg/kg/injection, schedule: Q01DX009 (sc), vehicle: steriod suspending solution 100 % of control | endpoint: median survival time, dose: 200.0 mg/kg/injection, schedule: Q01DX009 (sc), vehicle: steriod suspending solution 100 % of control

O=C1CCN(CCN2CCC(=O)NC2=S)C(=S)N1
inactive: endpoint: mean survival time, dose: 100.0 mg/kg/injection, schedule: Q04DX002 (ip), vehicle: gum acacia 94 % of control | endpoint: mean survival time, dose: 200.0 mg/kg/injection, schedule: Q04DX002 (ip), vehicle: gum acacia 91 % of control | endpoint: mean survival time, dose: 400.0 mg/kg/injection, schedule: Q04DX002 (ip), vehicle: gum acacia 97 % of control

CCOP(=O)(OCC)/C(C#N)=C\c1ccc(OC)c(OC)c1
inactive: endpoint: mean survival time, dose: 100.0 mg/kg/injection, schedule: Q04DX003 (ip), vehicle: saline with Tween-80 97 % of control | endpoint: mean survival time, dose: 200.0 mg/kg/injection, schedule: Q04DX003 (ip), vehicle: saline with Tween-80 92 % of control | endpoint: mean survival time, dose: 400.0 mg/kg/injection, schedule: Q04DX003 (ip), vehicle: saline with Tween-80 92 % of control

COc1cccc(/C(=C/c2ccc([N+](=O)[O-])cc2)C(=O)O)c1
inactive: endpoint: mean survival time, dose: 100.0 mg/kg/injection, schedule: Q01DX001 (ip), vehicle: Klucel (hydroxypropylcellulose) (HPC) 100 % of control | [1] 97 % of control and 100 % of control | endpoint: mean survival time, dose: 100.0 mg/kg/injection, schedule: Q04DX003 (ip), vehicle: Klucel (hydroxypropylcellulose) (HPC) 100 % of control | endpoint: mean survival time, dose: 200.0 mg/kg/injection, schedule: Q01DX001 (ip), vehicle: Klucel (hydroxypropylcellulose) (HPC) 109 % of control | [2] 96 % of control and 87 % of control | endpoint: mean survival time, dose: 200.0 mg/kg/injection, schedule: Q04DX003 (ip), vehicle: Klucel (hydroxypropylcellulose) (HPC) 105 % of control | endpoint: mean survival time, dose: 400.0 mg/kg/injection, schedule: Q01DX001 (ip), vehicle: Klucel (hydroxypropylcellulose) (HPC) 97 % of control | [3] 100 % of control and 91 % of control | endpoint: mean survival time, dose: 400.0 mg/kg/injection, schedule: Q04DX003 (ip), vehicle: Klucel (hydroxypropylcellulose) (HPC) 105 % of control

Cc1ccc(C)c(NC(=O)Nc2cc(C)on2)c1
inactive: endpoint: mean survival time, dose: 100.0 mg/kg/injection, schedule: Q01DX009 (ip), vehicle: saline with Tween-80 86 % of control | endpoint: mean survival time, dose: 200.0 mg/kg/injection, schedule: Q01DX009 (ip), vehicle: saline with Tween-80 97 % of control | endpoint: mean survival time, dose: 400.0 mg/kg/injection, schedule: Q01DX009 (ip), vehicle: saline with Tween-80 94 % of control

Cn1c(=O)c2[nH]c(-c3cccs3)nc2n(C)c1=O
inactive: endpoint: mean survival time, dose: 50.0 mg/kg/injection, schedule: Q01DX001 (ip), vehicle: other 101 % of control | endpoint: mean survival time, dose: 100.0 mg/kg/injection, schedule: Q01DX001 (ip), vehicle: other 90 % of control | endpoint: mean survival time, dose: 200.0 mg/kg/injection, schedule: Q01DX001 (ip), vehicle: other 97 % of control | endpoint: mean survival time, dose: 400.0 mg/kg/injection, schedule: Q01DX001 (ip), vehicle: other 92 % of control

c1cc[nH]c1
inactive: endpoint: mean survival time, dose: 75.0 mg/kg/injection, schedule: Q01DX001 (ip), vehicle: saline 100 % of control

CCOC(=O)CNCc1cccc(Cl)c1
inactive: [4] 98 % of control | endpoint: mean survival time, dose: 100.0 mg/kg/injection, schedule: Q04DX003 (ip), vehicle: saline 102 % of control | [5] 95 % of control | endpoint: mean survival time, dose: 200.0 mg/kg/injection, schedule: Q04DX003 (ip), vehicle: saline 100 % of control | endpoint: mean survival time, dose: 400.0 mg/kg/injection, schedule: Q04DX003 (ip), vehicle: saline 95 % of control

CN(C)C(=O)Sc1cc(Cl)c(S(=O)(=O)F)cc1Cl
inactive: [1] 97 % of control | [2] 100 % of control | [3] 90 % of control

CC1=C(CO)C(=O)O[C@@H]([C@@H](C)[C@H]2CC[C@H]3[C@@H]4C[C@H]5O[C@]56[C@@H](O)C=CC(=O)[C@]6(C)[C@H]4CC[C@]23C)C1
inactive: endpoint: mean survival time, dose: 10.0 mg/kg/injection, schedule: Q01DX Z (ip), vehicle: carboxymethylcellulose (CMC) 98 % of control | endpoint: mean survival time, dose: 20.0 mg/kg/injection, schedule: Q01DX Z (ip), vehicle: carboxymethylcellulose (CMC) 101 % of control | endpoint: mean survival time, dose: 50.0 mg/kg/injection, schedule: Q01DX001 (sc), vehicle: steriod suspending solution 103 % of control | endpoint: mean survival time, dose: 100.0 mg/kg/injection, schedule: Q01DX001 (sc), vehicle: steriod suspending solution 100 % of control | endpoint: mean survival time, dose: 200.0 mg/kg/injection, schedule: Q01DX001 (sc), vehicle: steriod suspending solution 103 % of control

CN(C)c1ccc(C(=O)O)cc1
inactive: [6] 93 % of control | [7] 104 % of control | [8] 87 % of control | [9] 107 % of control | endpoint: mean survival time, dose: 400.0 mg/kg/injection, schedule: Q01DX009 (ip), vehicle: other 96 % of control | [10] 95 % of control

[Cl][Pd][Cl].[NH-]CCN1CC1
inactive: endpoint: mean survival time, dose: 25.0 mg/kg/injection, schedule: Q04DX002 (ip), vehicle: saline + alcohol 113 % of control | endpoint: mean survival time, dose: 50.0 mg/kg/injection, schedule: Q04DX002 (ip), vehicle: saline + alcohol 102 % of control | endpoint: mean survival time, dose: 100.0 mg/kg/injection, schedule: Q04DX002 (ip), vehicle: saline + alcohol 117 % of control | endpoint: mean survival time, dose: 100.0 mg/kg/injection, schedule: Q04DX002 (ip), vehicle: saline 116 % of control

CCCCCCCCCCC1CCCCC1
inactive: endpoint: mean survival time, dose: 50.0 mg/kg/injection, schedule: Q04DX002 (ip), vehicle: saline with Tween-80 91 % of control | endpoint: mean survival time, dose: 100.0 mg/kg/injection, schedule: Q04DX002 (ip), vehicle: saline with Tween-80 91 % of control | endpoint: mean survival time, dose: 200.0 mg/kg/injection, schedule: Q04DX002 (ip), vehicle: saline with Tween-80 98 % of control

O=C(OCc1ccccc1CN1CCCCC1)c1ccc(Br)cc1
inactive: endpoint: mean survival time, dose: 25.0 mg/kg/injection, schedule: Q04DX002 (ip), vehicle: Klucel (hydroxypropylcellulose) (HPC) 115 % of control | endpoint: mean survival time, dose: 50.0 mg/kg/injection, schedule: Q04DX002 (ip), vehicle: Klucel (hydroxypropylcellulose) (HPC) 109 % of control | endpoint: mean survival time, dose: 100.0 mg/kg/injection, schedule: Q04DX002 (ip), vehicle: Klucel (hydroxypropylcellulose) (HPC) 105 % of control

CCOc1cc(C=Nc2cccc(C(F)(F)F)c2)ccc1O
inactive: [6] 100 % of control | [7] 95 % of control | [8] 99 % of control | [9] 90 % of control | [10] 92 % of control

O=S(O)c1ccc(Cl)cc1
inactive: [4] 101 % of control | [5] 100 % of control | endpoint: mean survival time, dose: 400.0 mg/kg/injection, schedule: Q01DX009 (ip), vehicle: saline 98 % of control

COC(=O)CCCCCCCC(=O)O
inactive: [1] 94 % of control | [2] 98 % of control | [3] 102 % of control
